Patent US6919362B2, “Heterocyclic derivatives, preparation method and pharmaceutical compositions containing same” (Les Laboratoires Servier, priority 2000, dated 2005)

How the values were obtained:
[1] = system: ob/ob mouse; assay: Antidiabetic and hypolipidaemic effect in the ob/ob mouse; assay type: in vivo; details: for reduction of glycaemia: glycaemia 24 hours after the final administration
Description: Mutations in laboratory animals and also different sensitivities to dietary regimens have allowed the development of animal models having non-insulin dependent diabetes and hyperlipidaemia associated with obesity and with resistance to insulin.
Genetic mice models (ob/ob) (Diabetes, 1982, 31 (1), 1-6) and Zucker (fa/fa) rats have been developed by various laboratories in order to understand the physiopathology of those diseases and test the effectiveness of new antidiabetic compounds (Diabetes, 1983, 32, 830-838).
The 10-week-old female ob/ob mouse (Harlan) is used for the in vivo tests. The animals are kept in a light-darkness cycle of 12 hours at 25° C. The mouse has a basal hyperglycaemia of 2 g/l. The animals are randomly selected in terms of their glycaemia to form groups of six. The compounds tested by the intraperitoneal route are dissolved in a mixture of dimethyl sulphoxide (10%) and solutol (15%) to be administered at 10 mg/kg in a volume of 2.5 ml/kg twice per day for four days. By the per os route, the compounds are tested at 30 mg/kg administered in a volume of 2.5 ml/kg of 1%, HEC twice per day for four days. The control groups receive the solvents under the same conditions as the treated groups. The activity of the products is evaluated by measuring glycaemia 24 hours after the final administration and by measuring body weight daily.

COC(=O)C(Cc1ccc(OCCn2c(=O)sc3cc(C(=O)c4ccccc4)ccc32)cc1)C(=O)OC [Example 18, Dimethyl 2-{4-[2-(6-benzoyl-2-oxo-1,3-benzothiazol-3(2H)-yl)-ethoxy]benzyl}malonate]
reduction of glycaemia ([1]; 10 mg/kg i.p. twice per day for four days): 45%
reduction of glycaemia ([1]; 30 mg/kg per os twice per day for four days): 43%

COC(=O)C(=Cc1ccc(OCCn2c(=O)sc3cc(NC(=O)c4ccccc4)ccc32)cc1)C(=O)OC [Example 76, Dimethyl 2-{4-[2-(6-(benzoylamino)-2-oxo-1,3-benzothiazol-3(2H)-yl)ethoxy]benzylidene}malonate]
melting point: 186 to 190 °C

COC(=O)C(=Cc1ccc(OCCn2c(=O)sc3cc(C(=O)Nc4ccccc4)ccc32)cc1)C(=O)OC [Example 84, Dimethyl 2-{4-[2-(6-(anilinocarbonyl)-2-oxo-1,3-benzothiazol-3(2H)-yl)ethoxy]benzylidene}malonate]
melting point: 102 to 105 °C

CN(CCOc1ccc(CC2SC(=O)NC2=O)cc1)c1ccccn1 (centres unmarked) [rosiglitazone, reference compound]
variation in body weight ([1]; ob/ob mouse, in four days, body weight measured daily): +4%
